Measured values from article PMC12223358 (2025).

Key:
[1] = system: pu22 (DNA, G4) TGAGGGTGGGTAGGGTGGGTAA; experiment: CD melting, 263 nm; details: no metal cations, 10 mM Tris-HCl, pH 7, 2 µM DNA, 4 µM compound (2 equiv), free Tm 27 °C
[2] = system: CPG-tel26 (DNA, G4) TTAGGGTTAGGGTTAGGGTTAGGGTT; experiment: G4-CPG affinity chromatography, UV; details: 50 mM KCl; 10% DMSO, 10% ethanol; 60 µM compound loaded; error ±2%
[3] = system: CPG-c-myc (DNA, G4) TGGGGAGGGTGGGGAGGGTGGGGAAGGTGGGGA; experiment: G4-CPG affinity chromatography, UV; details: 50 mM KCl; 10% DMSO, 10% ethanol; 60 µM compound loaded; error ±2%
[4] = system: CPG-ds27 (DNA, hairpin) CGCGAATTCGCGTTTCGCGAATTCGCG; experiment: G4-CPG affinity chromatography, UV; details: 50 mM KCl; 10% DMSO, 10% ethanol; 60 µM compound loaded; error ±2%
[5] = system: ds12 (DNA, duplex) CGCGAATTCGCG; experiment: CD titration; details: 20 mM KCl, 5 mM potassium phosphate; pH 7, 20 °C; 2 µM DNA; up to 4 µM compound; no relevant CD effect
[6] = system: tel26 (DNA, G4) TTAGGGTTAGGGTTAGGGTTAGGGTT; experiment: CD melting, 290 nm; details: 20 mM KCl, 5 mM potassium phosphate, pH 7, 2 µM DNA, 4 µM compound (2 equiv), free Tm 43 °C
[7] = system: ds12 (DNA, duplex) CGCGAATTCGCG; experiment: CD melting, 253 nm; details: 20 mM KCl, 5 mM potassium phosphate; pH 7; 2 µM DNA; 4 µM compound (2 equiv); free Tm 65 °C

Structure (SMILES)	ΔTm [1]	Bound ligand (%) [2] [%]	Bound ligand (%) [3] [%]	Bound ligand (%) [4] [%]	binding [5]	ΔTm [6]	ΔTm [7]	ΔTm ([6]; switch to parallel fold)	ΔTm ([1]; two transitions)
C[n+]1ccc(C#Cc2cnc3n4ccnc4n4c(C#Cc5cc[n+](C)cc5)cnc4n23)cc1	+45 °C	79	100	40	–	–	–	–	–
C[n+]1ccccc1C#Cc1cnc2n3ccnc3n3c(C#Cc4cccc[n+]4C)cnc3n12	–	74	84	39	–	–	–	–	–
C[n+]1ccc(C#Cc2cnc3n4ccnc4n4ccnc4n23)cc1	+8 °C	66	88	15	no	–	–	–	–
C[n+]1ccccc1C#Cc1cnc2n3ccnc3n3ccnc3n12	–	72	85	10	no	+3 °C	−2 °C	–	–
C[n+]1ccc(C#Cc2cnc3n2c2ncc(C#Cc4cc[n+](C)cc4)n2c2ncc(C#Cc4cc[n+](C)cc4)n32)cc1	–	75	90	50	–	–	+15 °C	+23 °C	–
C[n+]1ccccc1C#Cc1cnc2n1c1ncc(C#Cc3cccc[n+]3C)n1c1ncc(C#Cc3cccc[n+]3C)n21	–	89	99	56	–	–	+15 °C	+22 °C	+16/ + 63 °C
